Results taken from the supplement of paper PMC10307832.

How the values were obtained:
Test in all cases: relative viability (nuclei count vs DMSO), 5 days (fraction); higher = more cells survive
AT-7519 + Bortezomib = compound: O=C(NC1CCNCC1)c1n[nH]cc1NC(=O)c1c(Cl)cccc1Cl [AT-7519] + CC(C)C[C@H](NC(=O)[C@H](Cc1ccccc1)NC(=O)c1cnccn1)B(O)O [Bortezomib] (partner 0.002 µM)
Outline: (§1)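 After 5 days of treatment, lung cancer cells in 1536-well plates were fixed and stained in a single step (final 0.05% Triton X-100, 1% formaldehyde, 1 ug/ml Hoechst) and their nuclei counted on 4× images. Treatment had been applied by pin tool the day after seeding as one drug alone or as a fixed anchor-drug dose with five library-drug doses (not always all listed) in √10 steps. Relative viability is the nuclei count of treated wells divided by that of vehicle wells, and values are medians of duplicate plates.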

[1] = compound: C1=CC2=C(C=C(C(=C2N=C1)O)N=NC3=CC4=C(C=C3)C=C(C=C4)S(=O)(=O)O)S(=O)(=O)O + CC(=O)c1c(C)c2cnc(Nc3ccc(N4CCNCC4)cn3)nc2n(C2CCCC2)c1=O [Palbociclib] (partner 0.5 µM)
Outline: as §1

AT-7519 + Vorinostat = compound: O=C(NC1CCNCC1)c1n[nH]cc1NC(=O)c1c(Cl)cccc1Cl [AT-7519] + O=C(CCCCCCC(=O)Nc1ccccc1)NO [Vorinostat] (partner 1 µM)
Outline: as §1

[2] = compound: C1=CC2=C(C=C(C(=C2N=C1)O)N=NC3=CC4=C(C=C3)C=C(C=C4)S(=O)(=O)O)S(=O)(=O)O + C[C@@H](Oc1cc(-c2cnn(C3CCNCC3)c2)cnc1N)c1c(Cl)ccc(F)c1Cl [Crizotinib] (partner 1 µM)
Outline: as §1

Row | Cell Line | relative viability (AT-7519 + Bortezomib; first compound 0.01 µM) | relative viability (AT-7519 + Bortezomib; first compound 0.03162 µM) | relative viability (AT-7519 + Bortezomib; first compound 0.3162 µM) | relative viability (AT-7519 + Bortezomib; first compound 1 µM) | relative viability ([1]; first compound 0.08 µM) | relative viability ([1]; first compound 0.253 µM) | relative viability ([1]; first compound 0.8 µM) | relative viability ([1]; first compound 2.53 µM) | relative viability ([1]; first compound 8 µM) | relative viability (AT-7519 + Vorinostat; first compound 0.01 µM) | relative viability (AT-7519 + Vorinostat; first compound 0.03162 µM) | relative viability (AT-7519 + Vorinostat; first compound 0.3162 µM) | relative viability (AT-7519 + Vorinostat; first compound 1 µM) | relative viability ([2]; first compound 0.08 µM) | relative viability ([2]; first compound 0.253 µM) | relative viability ([2]; first compound 0.8 µM) | relative viability ([2]; first compound 2.53 µM) | relative viability ([2]; first compound 8 µM)
1 | 201T | 1.08 | 1.03 | 1.1 | 1.09 | 0.385 | 0.366 | 0.366 | 0.366 | 0.35 | 0.975 | 0.952 | 1.01 | 1.12 | 1.1 | 1.07 | 1.02 | 1.09 | 0.995
2 | A549 | – | – | – | – | – | – | – | – | – | – | – | – | – | 0.909 | 0.738 | 0.754 | 0.694 | 0.754
3 | A-427 | 1.02 | 0.961 | 1.04 | 0.792 | 0.525 | 0.547 | 0.512 | 0.541 | 0.482 | 0.894 | 0.863 | 0.927 | 0.768 | 1.05 | 0.814 | 0.978 | 1 | 0.876
4 | ABC-1 | 0.291 | 0.337 | 0.259 | 0.231 | 0.756 | 0.647 | 0.659 | 0.91 | 0.761 | 1.16 | 1.14 | 1.01 | 1.28 | 1.07 | 1.33 | 1.01 | 1.27 | 1.23
5 | BEN | 0.958 | 0.766 | 0.935 | 0.82 | 0.499 | 0.426 | 0.489 | 0.458 | 0.448 | 0.6 | 0.537 | 0.593 | 0.579 | 1.14 | 0.872 | 0.792 | 0.925 | 0.813
6 | CAL-12T | – | 0.929 | 0.593 | 0.336 | 0.471 | 0.352 | 0.415 | 0.481 | 0.351 | 0.777 | 0.653 | 0.543 | 0.108 | 0.69 | 0.528 | 0.711 | 0.932 | 0.717
7 | COR-L23 | 0.994 | 0.863 | 0.82 | 0.2 | 0.326 | 0.346 | 0.274 | 0.299 | 0.39 | 0.508 | 0.507 | 0.344 | 0.152 | 0.653 | 0.63 | 0.572 | 0.671 | 0.502
8 | COR-L 105 | 0.75 | 0.898 | 0.65 | 0.344 | 0.391 | 0.433 | 0.449 | 0.426 | 0.384 | 0.791 | 0.856 | 0.686 | 0.499 | 0.999 | 0.71 | 0.797 | 0.881 | 0.717
